“And” between values parts separate entries of the source, which are not always exact repeats. Identical values can stand only once.
Target: NanoLuc-PRMT5 co-expressed with WDR77 (Homo sapiens, UniProt O14744)
Test: Live-cell NanoBRET target engagement with BRET probe CBH-002 in HEK293 cells expressing NanoLuc-PRMT5 and unlabeled WDR77
Assay type: cell-based
Design: host or cells: HEK293; key to BRET, CBH-002 + DMSO / BRET, CBH-002 + GSK3326595: mBRET units = acceptor/donor BRET ratio × 1000
Settings: for BRET, CBH-002 + DMSO / BRET, CBH-002 + GSK3326595: log([CBH-002]); for BRET, CBH-002 + GSK3326595: 10 µM GSK3326595
Protocol: HEK293 cells (ATCC) were cultured in DMEM (Thermo Fisher) + 10% (v/v) FBS (Seredigm), and HCT116 cells (Horizon Discovery, #PAR-034 and #R02-033) were cultured in McCoy’s 5A (Thermo Fisher) + 10% FBS, with incubation in a humidified, 37 °C/5% CO2 incubator. Cells were split 1–3 days prior to performing experiments and used at roughly 80% confluency. […] Cells were transfected according to the manufacturer’s protocol using FuGENE HD (Promega). NanoLuc fusion DNA was diluted into Transfection Carrier DNA (Promega) in Opti-MEM at a ratio of 1:9 (mass/mass), and FuGENE HD was added at a ratio of 1:3 (μg DNA:μL lipid). […] Formed complexes were combined with cells resuspended to a density of 2 × 10^5 cells/mL in Opti-MEM + 1% FBS at a ratio of 1:20 (vol:vol). […] Cells were seeded at a density of 2 × 10^5 cells/mL in Opti-MEM + 1% FBS in 100 μL (96-well). The BRET probe CBH-002 was prepared first as a 100× stock in 100% DMSO (Sigma) and then diluted to a 20× stock in NanoBRET Tracer Dilution buffer (Promega). Test compounds were prepared as 1000× stocks in 100% DMSO and diluted to 10× stocks in Opti-MEM to prepare working stocks. […] NanoBRET Complete 3x Substrate was prepared by combining Nano-Glo Substrate and Extracellular NanoLuc Inhibitor in Opti-MEM, according to the manufacturer’s protocol (Promega).
BRET ratio values were calculated by dividing the acceptor by the donor signal, and raw BRET was converted to milli-BRET (mBRET) units (mBu) by multiplying by 1000.
EC50 values were obtained by fitting the BRET probe and compound affinity curves to a sigmoidal four-parameter fit model in Graphpad Prism:1 Y=Ymin+Ymax−Ymin/1+10^LogEC50−Xh where h is the Hill Slope.
When normalized BRET was used, mBRET values were normalized using2 NormalizedBRET%=(Y−BRETmin)/BRETmax−BRETmin where y = mBRET in the presence of test compound and BRET probe, BRETmin = mBRET at the highest concentration (saturating) of test compound and BRET probe, and BRETmax = mBRET in the presence of vehicle (DMSO) and BRET probe.
Normalized concentration-response curves showing full competition were fit using a 2-parameter model:3 Y=100/1+10^LogEC50−Xh
In situations where only partial competition was observed, the normalized concentration-response curves were fit using Eq. 1 and where Ymin was constrained to >0.

Sequence of NanoLuc-PRMT5 co-expressed with WDR77 (O14744 whole entry): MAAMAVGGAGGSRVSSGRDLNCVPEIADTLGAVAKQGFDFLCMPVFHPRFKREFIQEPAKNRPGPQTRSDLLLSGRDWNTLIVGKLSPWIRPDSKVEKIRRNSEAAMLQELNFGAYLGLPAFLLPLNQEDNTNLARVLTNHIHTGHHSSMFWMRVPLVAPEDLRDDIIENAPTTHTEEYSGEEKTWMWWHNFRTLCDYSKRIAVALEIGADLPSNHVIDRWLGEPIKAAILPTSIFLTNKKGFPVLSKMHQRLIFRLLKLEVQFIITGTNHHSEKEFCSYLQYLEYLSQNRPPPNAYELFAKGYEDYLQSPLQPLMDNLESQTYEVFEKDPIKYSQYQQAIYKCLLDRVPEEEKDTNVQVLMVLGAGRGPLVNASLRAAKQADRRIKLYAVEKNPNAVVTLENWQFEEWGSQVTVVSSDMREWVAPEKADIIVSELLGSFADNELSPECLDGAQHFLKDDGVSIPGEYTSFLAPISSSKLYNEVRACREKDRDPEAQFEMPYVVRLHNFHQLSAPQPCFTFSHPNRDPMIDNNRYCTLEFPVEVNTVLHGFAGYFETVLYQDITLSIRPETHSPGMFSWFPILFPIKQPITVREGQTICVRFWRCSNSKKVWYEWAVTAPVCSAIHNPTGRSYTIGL
Sequence of NanoLuc-PRMT5 co-expressed with WDR77 (Q9BQA1 whole entry partner): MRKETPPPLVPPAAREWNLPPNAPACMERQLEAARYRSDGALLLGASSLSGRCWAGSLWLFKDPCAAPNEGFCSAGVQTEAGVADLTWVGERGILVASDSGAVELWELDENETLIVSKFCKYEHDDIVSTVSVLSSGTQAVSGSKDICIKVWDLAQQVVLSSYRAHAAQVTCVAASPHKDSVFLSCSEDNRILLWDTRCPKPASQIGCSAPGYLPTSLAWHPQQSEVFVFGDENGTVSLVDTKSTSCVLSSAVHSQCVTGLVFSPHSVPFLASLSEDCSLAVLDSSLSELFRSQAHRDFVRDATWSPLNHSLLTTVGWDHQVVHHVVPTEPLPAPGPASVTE

BRET, CBH-002 + DMSO (uM 0.00): 772.09 and 714.74 and 694.22
BRET, CBH-002 + GSK3326595 (uM 0.00): 61.04 and 53.68 and 50.91
BRET, CBH-002 + DMSO (uM -0.30): 762.09 and 706.06 and 687.42
BRET, CBH-002 + GSK3326595 (uM -0.30): 39.10 and 34.12 and 31.58
BRET, CBH-002 + DMSO (uM -0.60): 725.23 and 680.05 and 663.94
BRET, CBH-002 + GSK3326595 (uM -0.60): 21.81 and 20.23 and 18.49
BRET, CBH-002 + DMSO (uM -0.90): 664.14 and 629.71 and 617.88
BRET, CBH-002 + GSK3326595 (uM -0.90): 15.32 and 14.57 and 13.57
BRET, CBH-002 + DMSO (uM -1.20): 530.53 and 496.08 and 504.63
BRET, CBH-002 + GSK3326595 (uM -1.20): 11.35 and 11.22 and 10.54
BRET, CBH-002 + DMSO (uM -1.51): 359.70 and 340.31 and 361.19
BRET, CBH-002 + GSK3326595 (uM -1.51): 9.43 and 9.45 and 8.97
BRET, CBH-002 + DMSO (uM -1.81): 238.28 and 223.48 and 233.43
BRET, CBH-002 + GSK3326595 (uM -1.81): 8.65 and 8.75 and 8.42
BRET, CBH-002 + DMSO (uM -2.11): 126.25 and 118.03 and 125.67
BRET, CBH-002 + GSK3326595 (uM -2.11): 8.17 and 8.22 and 7.93
BRET, CBH-002 + DMSO (uM -2.41): 70.04 and 65.87 and 70.86
BRET, CBH-002 + GSK3326595 (uM -2.41): 7.94 and 8.15 and 7.70
BRET, CBH-002 + DMSO (uM -2.71): 39.89 and 37.62 and 39.62
BRET, CBH-002 + GSK3326595 (uM -2.71): 7.74 and 7.94 and 7.67
BRET, CBH-002 + DMSO (uM -3.01): 23.90 and 22.68 and 24.07
BRET, CBH-002 + GSK3326595 (uM -3.01): 7.80 and 7.76 and 7.50
EC50 (probe titration against 10 µM GSK3326595 or DMSO, live HEK293, WDR77 co-expression, read-out: CBH-002 apparent affinity (EC50)): 33 nM
SMILES: O=C(CCc1ccc2n1[B-](F)(F)[N+]1=C(c3ccc[nH]3)C=CC1=C2)NCCCCC(=O)N1CCC(Nc2cc(C(=O)NC[C@H](O)CN3CCc4ccccc4C3)ncn2)CC1 [CBH-002]
